2 compounds from patent US20040247537A1, “Uv-screening peptide-flavonoid conjugates” (priority 2001, published 2004) can be followed below.

The subject of series [1] is skin (buttocks) of three volunteers, epidermis. As to the kind of experiment: Penetration depth into the skin (color reaction on biopsy slices). Conditions: human. It counts as in vivo. From the text: The essential condition is the existence of a specific detection method, which can be used to visualize the presence of particular sunscreen component. In case of quercetin one can take advantage of the existence of ortho dihydroxybenzene (catechol) configuration on the benzene ring B. Different colorimetric methods for catechols have been described. We choose the reaction described in J. Invest Dermatol., 70:197, 1978, (S. Pavel et al.).
Skin penetration study were executed using the following preparations:
1. Quercetin (1%) in cremor cetomacrogolis FNA (CMC)
2. Querceti-gelatin (small molecular weight fraction) (10-20%) in CMC.
3. Quercetin-gelatin (large molecular weight fraction) (10-20%) in CMC.
4. Catechol (1%) (as a penetration marker) in CMC.
The preparations were applied to the skin (buttocks) of three volunteers. The penetration times were 30 min, 1 hour and 3 hours. After each penetration time a biopsy (4 mm) was taken after local anesthesia. The biopsy material was frozen in liquid nitrogen and kept for the further analysis.
The biopsy material were cut in consecutive slices of 8 um thick The slices were incubated in a selected solution to achieve the color characteristic of catecholic structures. The depth of penetration was measured visually and expressed as a percentage penetrated epidermis, as follows: […]

The test system of series [2] is skin of volunteer subjects (skin types III or IV), UV-A radiation. As to the kind of experiment: UV-A protection test on volunteer subjects (MPD, SPF). It counts as in vivo, human. Particulars: one value per volunteer. The protocol: The test is performed on volunteer subjects with normal skin types III (Burns moderately, tans gradually) or IV (Burns minimally; tans well). The subjects have no history of photo-sensitivity, are not using systematic medications and have not been exposed to direct sunlight for the previous 6 weeks.
Two test sites of 5×10 cm, each test site divided in 6 sub-sites, are marked on the back of the subjects between the waist line and the shoulder blades. One test site is not treated and therefor unprotected. On the other test site 100 mg sunscreen product is applied uniformly to the skin so that the amount of the UV-absorbing compound applied is about 2 mg per m2. In case of the quercetin-gelatin compound the amount applied is such that also in this case 2 mg/m2 of the linked quercetin is applied, The applied sunscreen is allowed to dry for about 15 minutes.
A series of six doses of UV-A radiation, increasing in energy is applied to each test site using a UV-A Sellas Sun 2000 (irradiance about 50 milliWatt/cm^2 at 30 cm). […]
The MPD (minimal pigmenting dose) of each test site is determined visually after 3 hours of exposure. The MPD is defined as the quantity of radiation energy required to produce the first unambiguous pigmented reaction.
The SPF (Sun protection factor) is calculated as the quotient of […].

Series [3] can be described thus: Chelating capacity: free Fe3+ by ion chromatography. Type of series: physicochemical. Conditions: test samples b: Fe2(SO4)3 instead of FeSO4, mixed 1:1 with test solution, 10 minutes at 37° C.; iron alone 0.50. From the text: (§1) The amount of free Fe^2+ and Fe^3+ can be determined by ion-chromatography.
(§2) Gelatin has a very high affinity to Dionex column material that is used in the determination of iron ions. Gelatin will not elute from the column and thereby changes the characteristics of the column so that the separation is not stable. To prevent this a solid state extraction (SPE) column is used to separate the metal ions from the gelatin matrix. After this pretreatment the sample is conservated with 10 millimolar hydrochloric acid. The sample is then injected into the ion-chromatograph. The metal-ions form a complex with the pyridine-2,6-dicarboxylic acid (PDCA). The complexed iron ions are then separated by their differences in affinity to the column material, which has as well anion as cation characteristics (mixed mode). […] The signals obtained at the retention times known for Fe^2+ and Fe^3+ are proportional to the concentrations, which are calculated from a calibration curve.
(§3) A Dionex OnGuard-RP P/N 039595 column was conditioned with 5 ml methanol and 10 ml de-ionized water. […] 5 ml of the eluate is quantitatively pipetted into a 10 ml volumetric flask and 20 mM hydrochloric acid was added up to 10.00 ml. […]
(§4) In the same way, test samples 1b, 2b, 3b and 4b were prepared with Fe2(SO4)3 instead of FeSO4. […] The amounts of free Fe^2+ or Fe^3+ were determined by the method described above.

A short description of series [4]: Chelating capacity: free Fe2+ by ion chromatography. Type of series: physicochemical. Particulars: test samples a: 1 millimol/l FeSO4 solution mixed 1:1 with test solution, ethanol:water 1:3, 10 minutes at 37° C.; iron alone 0.50.
From the text: as §1, §2, §3, §4

Several values for one entry are separate records, joined by “and”; a condition that tells them apart may be missing. Identical values can stand only once.

On to `O=c1c(O)c(-c2ccc(O)c(O)c2)oc2cc(O)cc(O)c12` [Quercetin, quercetin], for which the figures for the “Penetration depth, percentage penetrated epidermis” value in series [1] (30 min), in series [1] (1 h) and in series [1] (3 h) were 30%, 50% and 80%, respectively. In addition, the “MPD (minimal pigmenting dose), protected” value in series [2] (protected test site, about 2 mg per m2 UV-absorbing compound (linked quercetin) applied, UV-A doses 33 to 8 joule/cm^2, determined visually after 3 hours) is 14 Joule/cm^2 and 19 Joule/cm^2. Further, the “SPF (Sun protection factor)” value in series [2] (quotient of the MPDs of protected and unprotected skin, UV-A) is 1.8 and 2.4. In addition, the “Amount of free Fe^3” value in series [3] was 0.20 millimol per liter. Moreover, the “Amount of free Fe^2+” value in series [4] was 0.16 millimol per liter.
Take `Oc1ccccc1O` [Catechol (1%), Catechol]: the “Penetration depth, percentage penetrated epidermis” value in series [1] (30 min) came to 40%; in series [1] (1 h), 60%; in series [1] (3 h), 90%.
